Where two headings read alike, the source gives them in different places.
What was measured:
Assay in all cases: Kinase profile (33P ATP filter binding)
Type in all cases: biochemical
MINK1 = MINK1 (Homo sapiens, UniProt Q8N4C8); conditions: read-out: Remaining protein kinase activity
MARK1 = MARK1 (Homo sapiens, UniProt Q9P0L2); conditions: read-out: Remaining protein kinase activity
SIK2 = SIK2 (Homo sapiens, UniProt Q9H0K1); conditions: read-out: Remaining protein kinase activity
CDK2-Cyclin A = CDK2-Cyclin A (Homo sapiens, UniProt P24941)
OSR1 = OSR1 (Homo sapiens, UniProt O95747); conditions: read-out: Remaining protein kinase activity
Chain of OSR1 (O95747 whole entry): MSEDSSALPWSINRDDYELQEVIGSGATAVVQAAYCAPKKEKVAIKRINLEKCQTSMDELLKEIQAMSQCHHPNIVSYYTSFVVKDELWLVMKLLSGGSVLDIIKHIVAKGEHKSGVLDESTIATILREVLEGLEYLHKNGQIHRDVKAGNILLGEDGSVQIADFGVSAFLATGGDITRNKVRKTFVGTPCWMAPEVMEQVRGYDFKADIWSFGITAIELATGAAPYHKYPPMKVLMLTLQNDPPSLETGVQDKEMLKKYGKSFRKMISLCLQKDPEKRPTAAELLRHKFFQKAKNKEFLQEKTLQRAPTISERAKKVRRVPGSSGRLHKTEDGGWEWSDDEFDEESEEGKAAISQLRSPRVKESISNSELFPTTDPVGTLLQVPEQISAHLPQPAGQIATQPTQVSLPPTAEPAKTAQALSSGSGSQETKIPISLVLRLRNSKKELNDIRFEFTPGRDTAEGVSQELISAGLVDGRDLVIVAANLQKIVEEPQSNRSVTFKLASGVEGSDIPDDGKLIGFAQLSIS

TAO1 = molecular target: T1, TAO1 (Homo sapiens, UniProt Q7L7X3); conditions: read-out: Remaining protein kinase activity
T1 sequence (Q7L7X3 1-1001): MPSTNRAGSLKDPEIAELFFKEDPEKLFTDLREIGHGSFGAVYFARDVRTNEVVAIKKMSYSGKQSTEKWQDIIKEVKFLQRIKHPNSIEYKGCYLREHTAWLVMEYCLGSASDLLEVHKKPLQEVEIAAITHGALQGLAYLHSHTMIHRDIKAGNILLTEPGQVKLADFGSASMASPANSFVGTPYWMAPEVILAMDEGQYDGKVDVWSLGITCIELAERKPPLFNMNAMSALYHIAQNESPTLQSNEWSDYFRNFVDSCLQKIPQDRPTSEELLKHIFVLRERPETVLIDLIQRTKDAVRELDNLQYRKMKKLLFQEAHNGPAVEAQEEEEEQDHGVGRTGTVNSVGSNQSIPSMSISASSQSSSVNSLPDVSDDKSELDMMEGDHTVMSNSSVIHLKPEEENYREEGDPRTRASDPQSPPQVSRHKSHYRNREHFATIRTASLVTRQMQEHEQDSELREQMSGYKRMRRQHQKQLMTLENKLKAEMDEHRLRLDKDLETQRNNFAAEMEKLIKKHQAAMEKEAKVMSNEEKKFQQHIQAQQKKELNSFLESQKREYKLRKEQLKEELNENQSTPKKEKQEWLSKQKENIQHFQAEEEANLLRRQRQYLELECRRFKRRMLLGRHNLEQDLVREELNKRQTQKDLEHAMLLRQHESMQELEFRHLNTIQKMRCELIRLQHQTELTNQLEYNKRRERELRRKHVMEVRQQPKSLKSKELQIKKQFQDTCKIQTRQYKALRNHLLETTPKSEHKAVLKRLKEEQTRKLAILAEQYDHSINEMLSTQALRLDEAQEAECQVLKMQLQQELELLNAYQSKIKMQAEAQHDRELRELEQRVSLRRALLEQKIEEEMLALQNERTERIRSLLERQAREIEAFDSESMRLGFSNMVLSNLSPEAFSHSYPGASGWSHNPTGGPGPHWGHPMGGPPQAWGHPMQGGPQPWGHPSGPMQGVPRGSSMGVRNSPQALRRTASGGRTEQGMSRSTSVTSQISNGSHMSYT

ROCK 2 = ROCK 2 (Homo sapiens, UniProt O75116); conditions: read-out: Remaining protein kinase activity
Chain of ROCK 2 (O75116 whole entry, species assumed): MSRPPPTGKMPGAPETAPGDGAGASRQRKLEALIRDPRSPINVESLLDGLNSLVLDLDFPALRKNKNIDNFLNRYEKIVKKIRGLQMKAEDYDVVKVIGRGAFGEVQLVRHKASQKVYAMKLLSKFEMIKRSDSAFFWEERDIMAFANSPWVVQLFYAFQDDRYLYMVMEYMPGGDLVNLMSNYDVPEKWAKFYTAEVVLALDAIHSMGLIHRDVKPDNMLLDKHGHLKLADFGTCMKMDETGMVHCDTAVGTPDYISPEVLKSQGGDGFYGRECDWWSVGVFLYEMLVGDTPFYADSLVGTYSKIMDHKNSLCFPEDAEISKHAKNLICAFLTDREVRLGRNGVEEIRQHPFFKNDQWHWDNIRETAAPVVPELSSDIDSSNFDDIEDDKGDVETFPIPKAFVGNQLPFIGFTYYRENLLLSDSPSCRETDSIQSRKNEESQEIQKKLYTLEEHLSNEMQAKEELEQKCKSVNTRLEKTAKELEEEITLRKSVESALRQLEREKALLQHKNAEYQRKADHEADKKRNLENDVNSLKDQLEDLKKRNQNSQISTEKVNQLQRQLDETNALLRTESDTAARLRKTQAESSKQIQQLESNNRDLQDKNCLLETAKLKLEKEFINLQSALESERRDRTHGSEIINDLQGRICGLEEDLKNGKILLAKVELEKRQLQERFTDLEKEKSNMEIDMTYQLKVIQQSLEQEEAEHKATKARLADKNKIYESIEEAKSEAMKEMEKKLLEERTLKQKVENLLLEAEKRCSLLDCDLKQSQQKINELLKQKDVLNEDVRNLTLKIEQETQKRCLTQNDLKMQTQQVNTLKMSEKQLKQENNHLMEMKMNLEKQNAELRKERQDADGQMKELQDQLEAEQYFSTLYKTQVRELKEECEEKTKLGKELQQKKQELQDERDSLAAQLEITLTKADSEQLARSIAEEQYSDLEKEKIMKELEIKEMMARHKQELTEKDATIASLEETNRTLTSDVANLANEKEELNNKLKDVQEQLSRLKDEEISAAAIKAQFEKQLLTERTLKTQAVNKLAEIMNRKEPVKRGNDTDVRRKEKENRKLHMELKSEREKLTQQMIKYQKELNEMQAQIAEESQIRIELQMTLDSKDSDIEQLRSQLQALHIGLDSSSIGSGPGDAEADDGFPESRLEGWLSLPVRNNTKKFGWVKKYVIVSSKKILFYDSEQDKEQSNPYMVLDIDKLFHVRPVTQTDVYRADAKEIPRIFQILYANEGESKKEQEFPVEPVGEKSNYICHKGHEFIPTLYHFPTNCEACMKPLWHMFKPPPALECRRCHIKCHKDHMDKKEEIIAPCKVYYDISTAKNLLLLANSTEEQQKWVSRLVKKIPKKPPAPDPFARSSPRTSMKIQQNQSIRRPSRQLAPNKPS

IKKe = molecular target: T2, IKKe (Homo sapiens, UniProt Q14164); conditions: read-out: Remaining protein kinase activity
T2 sequence (Q14164 1-716): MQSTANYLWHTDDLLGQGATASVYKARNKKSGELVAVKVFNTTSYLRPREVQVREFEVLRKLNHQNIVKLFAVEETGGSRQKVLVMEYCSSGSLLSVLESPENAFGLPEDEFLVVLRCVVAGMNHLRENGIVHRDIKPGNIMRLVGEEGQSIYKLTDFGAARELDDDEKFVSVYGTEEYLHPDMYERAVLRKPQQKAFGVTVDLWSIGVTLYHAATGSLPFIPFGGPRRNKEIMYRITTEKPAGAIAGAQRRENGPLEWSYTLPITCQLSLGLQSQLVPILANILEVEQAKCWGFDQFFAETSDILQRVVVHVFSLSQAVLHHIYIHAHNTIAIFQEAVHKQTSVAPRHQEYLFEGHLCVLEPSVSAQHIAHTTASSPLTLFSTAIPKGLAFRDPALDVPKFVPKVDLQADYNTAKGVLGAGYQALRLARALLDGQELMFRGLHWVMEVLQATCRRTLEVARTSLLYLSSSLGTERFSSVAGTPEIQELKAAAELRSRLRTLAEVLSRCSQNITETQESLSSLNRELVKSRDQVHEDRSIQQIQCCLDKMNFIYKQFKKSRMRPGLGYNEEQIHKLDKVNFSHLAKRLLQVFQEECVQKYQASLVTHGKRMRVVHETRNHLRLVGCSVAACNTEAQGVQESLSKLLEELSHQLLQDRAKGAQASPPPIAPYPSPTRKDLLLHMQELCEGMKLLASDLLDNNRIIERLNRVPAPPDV

MNK2 = MNK2 (Homo sapiens, UniProt Q9HBH9); conditions: read-out: Remaining protein kinase activity
Chain of MNK2 (Q9HBH9 whole entry): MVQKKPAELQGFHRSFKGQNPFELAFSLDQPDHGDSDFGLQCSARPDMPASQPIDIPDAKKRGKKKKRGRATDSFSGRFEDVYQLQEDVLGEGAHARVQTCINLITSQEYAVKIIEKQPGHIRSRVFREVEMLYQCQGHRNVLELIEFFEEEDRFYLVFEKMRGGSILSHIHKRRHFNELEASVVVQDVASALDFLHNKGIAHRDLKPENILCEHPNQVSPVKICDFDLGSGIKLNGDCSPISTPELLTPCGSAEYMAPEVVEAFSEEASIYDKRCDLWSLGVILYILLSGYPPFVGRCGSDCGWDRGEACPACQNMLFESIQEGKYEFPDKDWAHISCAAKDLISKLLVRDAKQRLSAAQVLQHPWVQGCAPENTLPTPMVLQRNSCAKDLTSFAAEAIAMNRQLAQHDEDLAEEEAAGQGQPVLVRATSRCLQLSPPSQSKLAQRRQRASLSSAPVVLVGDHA

CK2 = CK2 (Homo sapiens, UniProt P68400); conditions: read-out: Remaining protein kinase activity
Chain of CK2 (P68400 whole entry): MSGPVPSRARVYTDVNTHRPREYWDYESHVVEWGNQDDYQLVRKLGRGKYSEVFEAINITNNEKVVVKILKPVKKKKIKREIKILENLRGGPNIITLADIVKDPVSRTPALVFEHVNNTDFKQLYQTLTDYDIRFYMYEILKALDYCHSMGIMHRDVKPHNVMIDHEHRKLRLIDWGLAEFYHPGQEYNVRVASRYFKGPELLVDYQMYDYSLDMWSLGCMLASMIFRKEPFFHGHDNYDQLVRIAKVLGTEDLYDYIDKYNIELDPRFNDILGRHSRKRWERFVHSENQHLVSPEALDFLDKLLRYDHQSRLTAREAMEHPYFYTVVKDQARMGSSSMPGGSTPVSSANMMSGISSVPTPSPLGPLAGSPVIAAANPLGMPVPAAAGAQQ

Chain of SIK2 (Q9H0K1 whole entry): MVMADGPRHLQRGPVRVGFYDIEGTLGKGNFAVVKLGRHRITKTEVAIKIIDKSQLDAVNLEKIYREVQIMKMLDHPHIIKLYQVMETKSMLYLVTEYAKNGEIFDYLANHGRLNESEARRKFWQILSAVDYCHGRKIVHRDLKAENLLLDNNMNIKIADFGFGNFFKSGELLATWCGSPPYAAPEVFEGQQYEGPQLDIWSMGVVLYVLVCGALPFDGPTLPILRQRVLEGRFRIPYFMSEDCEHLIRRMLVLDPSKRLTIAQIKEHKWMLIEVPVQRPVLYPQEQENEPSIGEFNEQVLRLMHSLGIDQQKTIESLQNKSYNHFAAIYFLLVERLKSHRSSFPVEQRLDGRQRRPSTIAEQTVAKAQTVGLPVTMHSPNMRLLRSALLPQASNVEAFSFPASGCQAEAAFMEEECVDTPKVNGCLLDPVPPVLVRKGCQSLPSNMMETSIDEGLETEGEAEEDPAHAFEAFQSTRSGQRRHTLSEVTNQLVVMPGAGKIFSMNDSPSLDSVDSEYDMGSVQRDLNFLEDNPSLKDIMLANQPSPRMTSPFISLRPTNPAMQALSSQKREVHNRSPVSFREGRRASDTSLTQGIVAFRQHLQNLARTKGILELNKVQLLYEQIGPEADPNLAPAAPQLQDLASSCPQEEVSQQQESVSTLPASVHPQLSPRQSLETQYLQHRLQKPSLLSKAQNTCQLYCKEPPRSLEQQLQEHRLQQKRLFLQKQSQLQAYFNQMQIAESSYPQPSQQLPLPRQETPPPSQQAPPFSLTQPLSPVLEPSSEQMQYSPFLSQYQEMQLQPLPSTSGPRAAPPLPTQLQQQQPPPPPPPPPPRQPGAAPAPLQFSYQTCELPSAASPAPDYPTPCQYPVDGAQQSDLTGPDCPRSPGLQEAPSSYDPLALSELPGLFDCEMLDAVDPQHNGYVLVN
Chain of MINK1 (Q8N4C8 whole entry): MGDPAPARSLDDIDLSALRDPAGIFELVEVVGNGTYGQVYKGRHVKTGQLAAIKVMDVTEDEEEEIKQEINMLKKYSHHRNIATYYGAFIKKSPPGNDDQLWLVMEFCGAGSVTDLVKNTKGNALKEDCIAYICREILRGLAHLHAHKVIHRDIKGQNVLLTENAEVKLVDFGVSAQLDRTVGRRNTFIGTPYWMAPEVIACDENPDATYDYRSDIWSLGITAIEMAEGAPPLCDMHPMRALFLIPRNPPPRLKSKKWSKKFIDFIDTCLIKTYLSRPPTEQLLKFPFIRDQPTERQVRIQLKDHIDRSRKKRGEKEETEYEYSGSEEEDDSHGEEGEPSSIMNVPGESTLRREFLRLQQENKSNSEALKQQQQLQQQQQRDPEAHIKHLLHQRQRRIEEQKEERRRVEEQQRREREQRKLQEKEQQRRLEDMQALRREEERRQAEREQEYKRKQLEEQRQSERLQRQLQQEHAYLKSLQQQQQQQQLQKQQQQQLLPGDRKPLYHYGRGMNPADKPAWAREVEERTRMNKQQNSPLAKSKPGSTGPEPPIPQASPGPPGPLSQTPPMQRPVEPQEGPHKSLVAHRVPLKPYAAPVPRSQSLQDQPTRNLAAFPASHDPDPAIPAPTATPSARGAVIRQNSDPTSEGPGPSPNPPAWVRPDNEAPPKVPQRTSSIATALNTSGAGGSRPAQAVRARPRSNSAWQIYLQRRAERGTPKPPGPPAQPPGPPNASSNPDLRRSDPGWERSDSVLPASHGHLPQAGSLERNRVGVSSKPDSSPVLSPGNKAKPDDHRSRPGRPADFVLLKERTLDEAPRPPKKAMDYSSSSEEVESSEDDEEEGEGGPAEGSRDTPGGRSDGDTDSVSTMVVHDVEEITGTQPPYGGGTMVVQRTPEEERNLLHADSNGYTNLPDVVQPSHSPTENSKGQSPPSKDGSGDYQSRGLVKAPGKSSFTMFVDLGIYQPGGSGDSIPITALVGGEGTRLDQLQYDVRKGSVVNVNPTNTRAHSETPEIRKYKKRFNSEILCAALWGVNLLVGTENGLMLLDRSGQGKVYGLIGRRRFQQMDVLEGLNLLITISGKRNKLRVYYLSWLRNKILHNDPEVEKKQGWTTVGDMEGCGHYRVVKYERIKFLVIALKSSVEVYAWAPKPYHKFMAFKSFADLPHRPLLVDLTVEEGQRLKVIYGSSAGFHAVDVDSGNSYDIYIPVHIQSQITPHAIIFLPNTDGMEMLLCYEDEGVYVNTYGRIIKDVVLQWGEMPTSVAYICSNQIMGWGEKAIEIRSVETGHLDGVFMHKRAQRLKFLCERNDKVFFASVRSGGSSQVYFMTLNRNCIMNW

Structure (SMILES): COc1ccc2sc(-c3cncc(NC(C)=O)c3)nc2c1 [PST-001, N-(5-(5-Methoxybenzo[d]thiazol-2-yl)pyridin-3-yl)acetamide]
- remaining activity at 1 µM (MINK1): 104%
- remaining activity at 100 µM (MINK1): 88%
- remaining activity at 1 µM (MARK1): 122%
- remaining activity at 100 µM (MARK1): 110%
- remaining activity at 1 µM (SIK2): 112%
- remaining activity at 100 µM (SIK2): 65%
- Remaining protein kinase activity (CDK2-Cyclin A; 1 μM): 110%
- Remaining protein kinase activity (CDK2-Cyclin A; 100 μM): 69%
- remaining activity at 1 µM (OSR1): 120%
- remaining activity at 100 µM (OSR1): 136%
- remaining activity at 1 µM (TAO1): 102%
- remaining activity at 100 µM (TAO1): 111%
- remaining activity at 1 µM (ROCK 2): 110%
- remaining activity at 100 µM (ROCK 2): 64%
- remaining activity at 1 µM (IKKe): 105%
- remaining activity at 100 µM (IKKe): 122%
- remaining activity at 1 µM (MNK2): 106%
- remaining activity at 100 µM (MNK2): 66%
- remaining activity at 100 µM (CK2; CK2): 95%
- remaining activity at 1 µM (CK2): 102%

Structure (SMILES): COc1ccc2sc(-c3cncc(N)c3)nc2c1 [compound 1, 5-(5-Methoxybenzo[d]thiazol-2-yl)pyridin-3-amine]
- remaining activity at 1 µM (MINK1; MINK1, 1 μM): 108%
- remaining activity at 100 µM (MINK1; MINK1, 100 μM): 36%
- remaining activity at 1 µM (MARK1; MARK1, 1 μM): 122%
- remaining activity at 100 µM (MARK1; MARK1, 100 μM): 69%
- remaining activity at 1 µM (SIK2; SIK2, 1 μM): 102%
- remaining activity at 100 µM (SIK2; SIK2, 100 μM): 10%
- Remaining protein kinase activity (CDK2-Cyclin A; 1 μM): 96%
- Remaining protein kinase activity (CDK2-Cyclin A; 100 μM): 19%
- remaining activity at 1 µM (OSR1; OSR1, 1 μM): 128%
- remaining activity at 100 µM (OSR1; OSR1, 100 μM): 111%
- remaining activity at 1 µM (TAO1; TAO1, 1 μM): 97%
- remaining activity at 100 µM (TAO1; TAO1, 100 μM): 57%
- remaining activity at 1 µM (ROCK 2; ROCK 2, 1 μM): 108%
- remaining activity at 100 µM (ROCK 2; ROCK 2, 100 μM): 5%
- remaining activity at 1 µM (IKKe; IKKe, 1 μM): 110%
- remaining activity at 100 µM (IKKe; IKKe, 100 μM): 55%
- remaining activity at 1 µM (MNK2; MNK2, 1 μM): 90%
- remaining activity at 100 µM (MNK2; MNK2, 100 μM): 27%
- remaining activity at 1 µM (CK2; CK2, 1 μM): 103%
- remaining activity at 100 µM (CK2; CK2): 21%
